Test results reported in the NIST ThermoML archive (doi:10.1016/j.jct.2011.12.030).

Conditions: Liquid, Vibrating tube method

COCC[N+]1(C)CCCC1.O=S(=O)([N-]S(=O)(=O)C(F)(F)F)C(F)(F)F
mass density [kg/m3]
Conditions | 100 kPa | 1000 kPa | 10000 kPa | 20000 kPa | 40000 kPa | 60000 kPa | 80000 kPa | 100000 kPa | 120000 kPa
278.15 K | 1474.2 | 1474.9 | 1480.8 | 1487 | 1498.6 | 1509.5 | 1519.8 | 1529.3 | 1538.3
298.15 K | 1453.5 | 1454.1 | 1460.2 | 1466.9 | 1479.2 | 1490.6 | 1501.4 | 1511.4 | 1520.9
313.15 K | 1439.1 | 1440.1 | 1446.5 | 1453.5 | 1466.4 | 1478.4 | 1489.4 | 1499.8 | 1509.6
333.15 K | 1420.8 | 1421.6 | 1428.5 | 1435.9 | 1449.5 | 1462.2 | 1473.7 | 1484.6 | 1494.8
348.15 K | 1407.3 | 1408 | 1415.4 | 1423.2 | 1437.5 | 1450.5 | 1462.5 | 1473.6 | 1484.2
373.15 K | 1385.3 | 1385.7 | 1393.4 | 1401.8 | 1417.2 | 1430.9 | 1443.5 | 1455.2 | 1466.3
398.15 K | 1363.2 | 1363.3 | 1372 | 1381 | 1397.4 | 1412 | 1425.4 | 1437.9 | 1449.6

CCOS(=O)(=O)[O-].CCn1cc[n+](C)c1 [1-ethyl-3-methylimidazolium ethyl sulfate]
mass density [kg/m3]
Conditions | 100 kPa | 1000 kPa | 10000 kPa | 20000 kPa | 40000 kPa | 60000 kPa | 80000 kPa | 100000 kPa | 120000 kPa
278.15 K | 1251.9 | 1252.2 | 1255.7 | 1259.5 | 1266.8 | 1273.7 | 1280.2 | 1286.5 | 1292.2
298.15 K | 1237 | 1237.3 | 1241 | 1245 | 1252.6 | 1259.7 | 1266.5 | 1273.1 | 1279.3
313.15 K | 1226.6 | 1227 | 1230.8 | 1235 | 1242.8 | 1250.3 | 1257.3 | 1264.1 | 1270.5
333.15 K | 1213 | 1213.4 | 1217.4 | 1221.7 | 1230 | 1237.8 | 1245.2 | 1252.3 | 1259.1
348.15 K | 1203.1 | 1203.6 | 1207.7 | 1212.3 | 1220.9 | 1228.9 | 1236.5 | 1243.8 | 1250.8
373.15 K | 1187.3 | 1187.3 | 1191.8 | 1196.6 | 1205.8 | 1214.2 | 1222.2 | 1229.7 | 1237
398.15 K | 1171.4 | 1171 | 1175.9 | 1181 | 1190.7 | 1199.7 | 1208.1 | 1216 | 1223.4
